Test results from patent US20040229205A1, “Compositions for the storage of platelets” (priority 2003, published 2004).

Key:
[1] = test system: platelets (P-selectin expression); assay: P-selectin expression of stored platelets by flow cytometry, basal and after 10 nM thrombin challenge; assay type: cell-based; conditions: for Difference (% capable of being activated) / % Positive / P-Selectin Expression: five day stored platelets; for retained P-selectin expression activity: thrombin challenge
Description: Internal protein expression may be measured by conjugation of a molecule with a fluorescent dye, followed by sorting in a fluorescent cell sorter. In general, it is preferable to use two monoclonal antibodies, one that binds a cell surface molecule expressed and a second that binds a cell surface molecule that is expressed only after activation. Each monoclonal antibody is conjugated to a different colored dye, that can be distinguished by spectrofluorometry. In the preferred embodiment, the normally expressed cell surface molecule is GPIIbIIIa; the cell surface molecule expressed after activation is P-selectin. It is well know in the art to make monoclonal antibodies to proteins. U.S. Pat. No. 5,470,738, issued in 1995 to Freilich et al, is one example of a method of making monoclonal antibodies to GPIIIa. Another anti-platelet monoclonal antibody is that to GP IV, as disclosed by U.S. Pat. No. 5,231,025, issued in 1993 to Gralnisch. However, it is most convenient to purchase antibodies commercially from such companies as Becton-Dickinson (Philadelphia).
A basal measurement of spontaneous activation is obtained and the cells are then challenged with an agonist. The difference between cells challenged to activate minus the basal measurement is a measure of cell function. In the preferred embodiment, the agonist is 10 nM thrombin.
P-selectin is an internal protein that is exposed on the surface of the platelet after activation. Once activated, platelets cannot be activated again, that is, they are nonfunctional. Platelets which have aggregated are likewise nonfunctional. Measurement of P-selectin before and after activation with thrombin provides a measure of the ability of the platelets to be activated.
P-selectin expression in response to a challenge of 10 nM thrombin is a highly accurate and quantitative method to assess platelet function using flow cytometry techniques. A monoclonal antibody to the platelet GPIIbIIIa receptor (Becton-Dickinson) is conjugated with green fluorescence, marking all platelets with a green detection. […] About 10,000 to 25,000 platelets are counted and measured for P-selectin expression and the % positive cells are defined as activated platelets that express P-selectin. Platelets that are activated are not capable of being activated a second time; that is, they are essentially nonfunctional.
It was proposed years ago by Dawson (Transfusion 21:215-218. (1981)) that ribose at the concentration of 15 mM is beneficial to stored whole blood. It was assumed that ribose functioned by raising the energy levels of the cells, as discussed at length in U.S. Pat. No. 6,159,942. […] However, it should be noted that the platelet storage milieu is an austere environment, lacking the homeostatic and buffering mechanisms of the kidneys, lungs and livers of an intact organism. Various concentrations of D-Ribose were tested to determine the optimum level for platelet storage. […] Platelet concentrate bags were obtained from a local transfusion center within two hours of collection from the donor. The platelets were either supplemented with the D-Ribose cocktail directly into the bag or the platelets were divided into a series of 10 tubes into each of which two ml of platelets were added. Platelet function was assessed by ATP secretion, platelet aggregation, P-selectin expression, platelet count and pH. Platelet function was measured every 24 hours. The bags and tubes were placed on a rotating wheel at room temperature for the duration of the experiment.
For the concentration test, platelets were stored for five days in standard platelet storage solution at room temperature and gentle agitation with or without various levels of ribose. At five days the P-selectin expression test was performed.

[2] = test system: platelets (ATP secretion); assay: ATP secretion of stored platelets in response to 10 nM thrombin (luciferin/luciferase); assay type: cell-based
Description: Yet another measure of platelet function is the secretion of ATP. Platelets that are able to function well are able to secrete ATP while cells that have already been activated or have lost funciton in other ways cannot secrete ATP.
The platelet dense granules shown in FIG. 1 contain ATP which is released in response to platelet agonists such as thrombin, collagen or adenosine diphosphate (ADP). The release reaction of ATP from platelets serves as another method to monitor platelet function. There are many methods to analyze ATP. A convenient method is the well known luciferin/luciferase reaction (Sigma Chemical, St. Louis). This assay is derived from the light producing system of the firefly. The substrate luciferin, in the presence of ATP, is cleaved by the enzyme luciferase, accompanied by the emission of light. The emitted light is measured by a photomultiplier tube
Platelet suspensions containing about 350 units in 40 μl were mixed with 10 μl luciferin/luciferase reagent. An agonist is injected. As the platelet dense granules release ATP, the bioluminescent reaction occurs, which is measured by the photomultiplier tube. […] The rate of reaction is recorded and as platelet function decays, the rate decays. Total ATP was measured by lysing the cells with Triton and determining ATP content. The results as presented in Table III are expressed as intact rate of ATP secretion.

platelets (aggregation) = assay: Platelet aggregation on thrombin challenge (optical density / aggregometer); assay type: cell-based
Description: Another parameter of platelet function is the ability to aggregate when challenged by an agonist. The platelet suspension is dense and milky white. Aggregation and subsequent settling of the aggregates can be estimated visually, or measured with a densitometer.
As a second measure of the effect of ribose on platelets, platelet aggregation was estimated. Platelet aggregation is a crucial function of platelet activity; platelets that cannot aggregate are essentially nonfunctional. Platelets were stored as above. The optical density of the suspension was measured before and after thrombin challenge.
Platelet aggregation was measured with a platelet aggregometer (Chronolog, Inc., Irvine, Calif.). Platelet-rich, turbid suspensions were stirred in a cuvette and the transmittance of light through the sample relative to a platelet poor blank is recorded. When a aggregating agent is added, activated platelets with exposed fibrinogen receptors (GPIIbIIIa) are brought in close contact with each other in a medium containing calcium and fibrinogen and form increasingly large platelet aggregates, accompanied by a decrease in turbidity. The change in optical density was then translated by the instrument to percent aggregation. Simple stated, as platelets clump, more light passes through the cuvette.

platelets = assay: Preservation of platelet function in stored platelets, methods of examples 1 to 6; assay type: cell-based
Experimental: It is known that other pentoses may have similar effects as D-Ribose, either through intracellular conversion to riboe or a direct effect. Ribulose-5-phosphate, xylulose-5-phosphate and xylitol were tested for preservation of activity in stored platelets according to the methods of examples 1 to 6.
(§1) Bacterial contamination was measured by colony counts in standard Petri dishes that had been inculated with the test solution. It is assumed that the millimolar glucose concentration in most platelet storage solutions contributes to the growth of bacteria. As noted above, Murphy (Table II) discloses a glucose-free solution for the storage of platelets. Elimination of reduction of glucose levels from millimolar to micromolar concentrations has a profound effect in reducing bacterial contamination, however, platelet function at five days, as measured by ATP secretion and P-selectin expression, was poor.

bacteria = assay: Bacterial contamination of platelet storage solution by colony counts in Petri dishes; conditions: D-Ribose added to the storage cocktail
Experimental: as §1

[3] = test system: platelets (adhesion to adventitia of human renal artery); assay: Platelet adhesion assay in microflow chamber on human renal artery section; assay type: cell-based; conditions: 1.5 mM D-ribose solution, eight days of storage
Experimental: The ability of platelets to aggregate as a measure of function can also be assayed by ability to adhere to and […] on tissue, such as the adventitia and intima of arteries. Normal, healthy, functional platelets will show deposition and attachment onto tissue whereas compromised, poorly functional or nonfunctional platelets will have decreased levels of platelet attachment. Platelet rich plasma (PRP) was prepared from a random donor bag of platelets, which were harvested and resuspended in plasma at a concentration of at least 10^6 platelets per milliliter. On Day 1, the platelets were allowed to stand at room temperature for eight hours and were then tested in the platelet adhesion assay. Fresh frozen human renal artery was sectioned and placed flat on a microscope slide. A microflow chamber was constructed to pull PRP across the section at a defined flow rate and defined shear rate. The direction of flow is adventitia, through the media and intima and into the lumen, as illustrated in FIG. 10. Functional platelets will adhere to the adventitia and form accretion zones that initiate at the adventitia (the outside of the blood vessel) and extend across the media and intima. Non-functional platelets are unable to adhere to the adventitia. Therefore, the adhesion assay is a sensitive test of platelet function. Following the baseline test, a portion of the platelet suspension was set aside as control, without additional solution added. Another portion of the platelets were suspended in a solution containing: [table]

[4] = 30 grams of ribose each day, subjects; cited from earlier work
[5] = 1.5 mM down to 150 pM, analyzed every 24 hours

Compound: O=C(CO)[C@H](O)[C@H](O)COP(=O)(O)O [Ribulose-5-phosphate]
- P-selectin expression in response to thrombin challenge versus controls [1, 5]: No difference from controls
- ATP secretion in response to 10 nM thrombin versus controls [2, 5]: No difference from controls
- platelet aggregation versus controls (platelets (aggregation); [5]): No difference from controls

Compound: OC[C@@H](O)[C@H](O)[C@@H](O)CO [xylitol]
- preservation of platelet function (platelets): some benefit

Compound: O=C[C@H](O)[C@H](O)[C@H](O)CO [D-Ribose]
- Difference (% capable of being activated) ([1]; 150 pM D-Ribose): 10.9%
- % Positive ([1]; 150 pM D-Ribose, + thrombin): 42.6%
- P-Selectin Expression ([1]; 150 pM D-Ribose, + thrombin): 15475
- % Positive ([1]; 150 pM D-Ribose, basal): 31.7%
- P-Selectin Expression ([1]; 150 pM D-Ribose, basal): 11260
- preserving function (P-selectin expression test) ([1]; 150 pM D-Ribose, five days storage): ineffective
- retained activity ([1]; 150 nM D-Ribose, 8 days of storage): greater than 75%
- retained activity ([1]; 150 nM D-Ribose, 10 days of storage): greater than 50%
- Difference (% capable of being activated) ([1]; 150 nM D-Ribose): 60.6%
- % Positive ([1]; 150 nM D-Ribose, + thrombin): 65.7%
- P-Selectin Expression ([1]; 150 nM D-Ribose, + thrombin): 41480
- % Positive ([1]; 150 nM D-Ribose, basal): 5.1%
- P-Selectin Expression ([1]; 150 nM D-Ribose, basal): 2465
- retained P-selectin expression activity ([1]; 150 nM D-Ribose, five days storage): about 60%
- retention of activation activity on activation with thrombin ([1]; 153 nM D-Ribose, three days storage): 78.8%
- positive (activated) cells ([1]; 153 nM D-Ribose, three days storage, basal): 5%
- Difference (% capable of being activated) ([1]; 15 μM D-Ribose): 58.3%
- % Positive ([1]; 15 μM D-Ribose, + thrombin): 64.4%
- P-Selectin Expression ([1]; 15 μM D-Ribose, + thrombin): 34960
- % Positive ([1]; 15 μM D-Ribose, basal): 6.1%
- P-Selectin Expression ([1]; 15 μM D-Ribose, basal): 3275
- Difference (% capable of being activated) ([1]; 1.5 mM D-Ribose): 34.4%
- % Positive ([1]; 1.5 mM D-Ribose, + thrombin): 60.0%
- P-Selectin Expression ([1]; 1.5 mM D-Ribose, + thrombin): 32400
- % Positive ([1]; 1.5 mM D-Ribose, basal): 40.4%
- P-Selectin Expression ([1]; 1.5 mM D-Ribose, basal): 21605
- retained P-selectin expression activity ([1]; 1.5 mM D-Ribose, five days storage): about 60%
- preservative effect on ATP secretion ([2]; 1.5 nM D-Ribose): no preservative effect
- rise of total ATP content of treated cells ([2]; 150 nM D-Ribose): more than 10%
- Rate of ATP secretion ([2]; 150 nM D-Ribose, day 1, 10 nM thrombin): 1.9
- Total ATP ([2]; 150 nM D-Ribose, day 1, cells lysed with Triton): 3.0
- Rate of ATP secretion ([2]; 150 nM D-Ribose, day 3, 10 nM thrombin): 1.9
- Total ATP ([2]; 150 nM D-Ribose, day 3, cells lysed with Triton): 3.2
- Rate of ATP secretion ([2]; 150 nM D-Ribose, day 5, 10 nM thrombin): 1.7
- Total ATP ([2]; 150 nM D-Ribose, day 5, cells lysed with Triton): 3.4
- Rate of ATP secretion ([2]; 150 nM D-Ribose, day 7, 10 nM thrombin): 1.6
- Total ATP ([2]; 150 nM D-Ribose, day 7, cells lysed with Triton): 3.4
- effect on ATP secretion ([2]; 15 mM D-Ribose): no effect
- toxicity to platelets ([2]; 15 mM D-Ribose): toxic to platelets
- ATP secretion activity, % of baseline ([2]; optimal amounts of D-Ribose (150 nM), day 7): > 80%
- mean ATP secretion activity, % of baseline ([2]; optimal amounts of D-Ribose (150 nM), five days): 90%
- platelet samples with aggressive aggregation response to 10 nM thrombin (platelets (aggregation); day 3): all five
- platelet samples responding (aggregation) to 10 nM thrombin (platelets (aggregation); day five): four out of five
- platelet samples able to aggregate in response to thrombin challenge (platelets (aggregation); day seven): three out of five
- aggregation on thrombin challenge (platelets (aggregation); platelets stored in 150 pM D-Ribose): no aggregation
- aggregation on thrombin challenge (platelets (aggregation); platelets stored in 150 nM D-Ribose): strong aggregation
- aggregation on thrombin challenge (platelets (aggregation); platelets stored in 15 μM D-Ribose): very weak effect
- aggregation on thrombin challenge (platelets (aggregation); platelets stored in 1.5 mM D-Ribose): no aggregation
- incidence of bacterial contamination (bacteria): lower incidence of bacterial contamination
- platelet adhesion ([3]; 30 seconds of flow): very early platelet adhesion at the adventitia
- platelet adhesion and accretion ([3]; 2.5 minutes of flow): significant platelet adhesion and accretion zones
- platelet adhesion and accretion ([3]; 4.5 minutes of flow): formed a large platelet mass at the adventitia
- tolerance of ingestion [4]: no ill effects

Compound: O=C(CO)[C@@H](O)[C@H](O)COP(=O)(O)O [xylulose-5-phosphate, Xylulose-5-phosphate]
- P-selectin expression in response to 10 nM thrombin challenge ([1]; five-day treated platelets): 67.7%
- P-selectin spontaneous expression ([1]; five-day treated platelets): 37.5%
- ATP secretion, retention of basal value ([2]; five days storage): 64.5%
- platelet aggregation (platelets (aggregation); five days storage): weak
